In assay [1] the target is T1, full-length HAQ STING (Homo sapiens, UniProt Q86WV6, G230A/H232R/R293Q/R71H).
T1 construct: made in house; host or cells: Trichoplusia ni (Hi-Five) insect cells, baculovirus generated in Sf21; crude membranes
Put plainly: 3H-cGAMP filtration binding assay (HAQ STING). The note with it: competition with tritiated cGAMP ligand; T. ni cell membranes overexpressing full-length HAQ STING. From the text: The ability of compounds to bind STING is quantified by the ability to compete with tritiated cGAMP ligand for human STING receptor membrane using a radioactive filter-binding assay. The binding assay employs STING receptor obtained from Hi-Five cell membranes overexpressing full-length HAQ STING prepared in-house and tritiated cGAMP ligand also purified in-house.
The ability of compounds to bind STING is quantified by their ability to compete with tritiated cGAMP ligand for human STING receptor membrane using a radioactive filter-binding assay. The binding assay employs STING receptor obtained from Trichoplusia ni cell membranes (T. ni; Expression Systems, cat #94-002F, www.expressionsystems.com) overexpressing full-length HAQ STING and tritiated cGAMP ligand.
The basic HAQ STING filtration assay protocol is as follows:
The compounds were serially titrated by the Hamilton STARPlus CORE in a 96-well plate (Greiner, #651201) using a 1:3 ten-point dose response format. […] 148 uL of prepared membrane was then manually added to each well of a 96-well deep-well polypropylene plate (Fisher Scientific, #12-566-121). Following membrane addition, 2 uL of either titrated test compound, DMSO control (Sigma #276855), or cold cGAMP control was added to the appropriate wells using a BIOMEK FX. Compound and membrane then preincubated for 60 min at RT to allow compound binding to equilibrate. Following equilibration, 8 nM of [^3H] c-GAMP ligand was prepared by diluting into assay buffer, and 50 uL of this working stock was then manually added to each well of the assay plate. Plates were then incubated at RT for 60 min, and the contents of each assay plate were then filtered through a 96-well GF/B filter plate (PerkinElmer, #6005250) using a TOMTEC MACH III Cell Harvester equipped with 20 mM HEPES buffer (Fisher Scientific, #BP299500). The filter plates were then dried at 55° C. for 30 min using a pressurized oven before 30 uL of ULTIMA GOLD F scintillate was added to each well. Tritium levels for each reaction well were then measured using a PerkinElmer TopCount plate reader.
After normalization to controls, the percent activity for each compound concentration was calculated by measuring the amount of remaining radioactivity. The plot of percent activity versus the log of compound concentration was fit with a 4-parameter dose response equation to calculate EC50 values.

The subject of assay [2] is IFN-β secretion from THP1 cells. Put plainly: IFN-β secretion in THP1 cell culture (5 h). It is filed as cell-based, human. The note with it: THP1 cells, 5 h incubation, compound at 30 μM, 30 uM cGAMP = 100%; for activation at 30 µM: Homo sapiens, read-out: % Effect at 30 μM relative to 2′3′-cGAMP. Here is the method:
The ability of compounds to stimulate the secretion of interferon-beta from THP1 cells was measured using a human IFN-β AlphaLISA kit (Perkin Elmer, Cat. No. AL265F). The basic protocol is as follows:
The cell viability and count was ascertained using a Beckman Coulter V-Cell XR cell counter. The cell suspension was centrifuged at 200×g for 5 min at RT. Cells were resuspended to a density of 0.8×10^6/mL in 37° C. assay medium. Subsequent liquid transfers were performed using either a Matrix electronic multichannel pipette or an Agilent Bravo Automated Liquid Handling Platform.
The assay was started by dispensing 40 μL of the previously prepared cell suspension into the wells of the plate containing compounds. After 5 h incubation at 37° C., 5% CO2 in a humidified atmosphere, the plate of cells and compounds was centrifuged at 200×g for 5 min at RT. […] To these supernatant-containing wells was added 10 μL of 5× Anti-Analyte Acceptor beads (50 μg/mL of AlphaLISA HiBlock Buffer) and incubated for 30 min at RT while shaking on an orbital plate shaker. To each well was added 10 μL of 5× Biotinylated Antibody Anti-analyte (5 nM in AlphaLISA HiBlock Buffer) and incubated on an orbital plate shaker for 60 min at RT or overnight at 4° C. To each well was added 25 μL of 2× SA-Donor beads (80 μg/mL in AlphaLISA HiBlock Buffer) and incubated for 30-45 min at RT in the dark while shaking on an orbital plate shaker. The plate was then read on a Perkin Elmer Envision (λex680 nm, λem=570 nm). The percent effect of the AlphaLISA signal at each compound concentration was calculated based on 30 uM cGAMP positive controls and 0.3% DMSO negative controls. The plot of percent effect versus the log of compound concentration was fit with a 4-parameter concentration response equation to calculate EC50 values.
Compounds of the disclosure were evaluated for IFN-β secretion in THP1 cell culture as described above.

Like-named read-outs stand apart in the source and are kept apart here.

T1 sequence (Q86WV6 with tags, fused parts or gaps R71H/G230A/H232R/R293Q): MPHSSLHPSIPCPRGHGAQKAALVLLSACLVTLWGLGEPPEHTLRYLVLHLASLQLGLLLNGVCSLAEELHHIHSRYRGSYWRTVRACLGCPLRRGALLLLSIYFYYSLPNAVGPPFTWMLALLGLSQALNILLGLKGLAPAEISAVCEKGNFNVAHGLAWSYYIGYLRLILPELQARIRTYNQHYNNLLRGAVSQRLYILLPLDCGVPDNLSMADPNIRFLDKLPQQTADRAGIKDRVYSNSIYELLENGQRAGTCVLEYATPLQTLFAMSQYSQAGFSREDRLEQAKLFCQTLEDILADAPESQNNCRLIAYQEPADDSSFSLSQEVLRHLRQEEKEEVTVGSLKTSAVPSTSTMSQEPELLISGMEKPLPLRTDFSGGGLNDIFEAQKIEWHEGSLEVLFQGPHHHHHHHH

What is called EC50 is the concentration that produces a half-maximal response. The compound `Nc1ncnc2c1nnn2[C@@H]1O[C@@H]2COP(=O)(S)O[C@@H]3[C@H](F)[C@@H](COP(=O)(S)O[C@H]2[C@@H]1F)O[C@H]3n1cnc2c(=O)n3cc[nH]c3nc21` (single isomer, unassigned) [Example 23] displayed an EC50 in assay [1] of 28 nM. This counts as double-digit nanomolar.

Consider `Nc1ncnc2c1ncn2[C@@H]1S[C@@H]2COP(=O)(S)OC3[C@H](n4cnc5c(=O)n6cc[nH]c6nc54)O[C@H](COP(=O)(S)OC2C1O)[C@H]3F` (stereo in doubt) [Example 17, 3-[(5R,7R,8R,12aR,14R,15S,15aR,16R)-14-(6-amino-9H-purin-9-yl)-16-fluoro-15-hydroxy-2,10-dioxido-2,10-disulfanyloctahydro-12H-5,8-methanothieno[3,2-l][1,3,6,9,11,2,10]pentaoxadiphosphacyclotetradecin-7-yl]-3,5-dihydro-9H-imidazo[1,2-a]purin-9-one], for which, in assay [2] (THP-1, 5 h), the activation at 30 µM came to 122%. Further, it took 3 nM to reach a half-maximal effect in assay [1] (EC50).

For `Nc1ccnc2c1ccn2[C@H]1C[C@@H]2OP(=O)(S)OC[C@H]3O[C@@H](n4ccc(=O)n5ccnc45)[C@H](OP(=O)(S)OC[C@H]2O1)[C@@H]3O` (stereo partly drawn) [Example 34, 8-[(5R,7R,8R,12aR,14R,15aS,16R)-14-(4-amino-1H-pyrrolo[2,3-b]pyridin-1-yl)-16-hydroxy-2,10-dioxido-2,10-disulfanyloctahydro-12H-5,8-methanofuro[3,2-l][1,3,6,9,11,2,10]pentaoxadiphosphacyclotetradecin-7-yl]imidazo[1,2-a]pyrimidin-5(8H)-one], the activation at 30 µM in assay [2] (THP-1, 5 h) was 157%. The compound also displayed an EC50 in assay [1] of 1120 nM.

Turning to `Nc1ccnc2c1nnn2[C@H]1C[C@@H]2OP(=O)(S)OC[C@H]3O[C@@H](n4ccc(=O)n5ccnc45)[C@H](OP(=O)(S)OC[C@H]2O1)[C@@H]3O` (stereo partly drawn) [Example 18, 8-[(5R,7R,8R,12aR,14R,15aS,16R)-14-(7-amino-3H-[1,2,3]triazolo[4,5-b]pyridin-3-yl)-16-hydroxy-2,10-dioxido-2,10-disulfanyloctahydro-12H-5,8-methanofuro[3,2-l][1,3,6,9,11,2,10]pentaoxadiphosphacyclotetradecin-7-yl]imidazo[1,2-a]pyrimidin-5(8H)-one], in assay [2] (THP-1, 5 h), the activation at 30 µM was found to be 124%. Besides, a half-maximal effect in assay [1] (EC50) was put at 126 nM.

As to `Nc1ncnc2c1ccn2[C@@H]1O[C@@H]2COP(=O)(S)O[C@@H]3C[C@@H](COP(=O)(S)O[C@H]2[C@@H]1F)O[C@H]3n1cnc2c(=O)[nH]ccc21` (stereo partly drawn) [Example 22, 1-[(5S,7R,8R,12aR,14R,15S,15aR)-14-(4-amino-7H-pyrrolo[2,3-d]pyrimidin-7-yl)-15-fluoro-2,10-dioxido-2,10-disulfanyloctahydro-12H-5,8-methanofuro[3,2-l][1,3,6,9,11,2,10]pentaoxadiphosphacyclotetradecin-7-yl]-1,5-dihydro-4H-imidazo[4,5-c]pyridin-4-one], the activation at 30 µM in assay [2] (THP-1, 5 h) was 100%.

`Nc1nc2c(ncn2[C@@H]2O[C@@H]3COP(=O)(S)O[C@H]4[C@@H](O)[C@H](n5cnc6c(=O)[nH]c7nccn7c65)O[C@@H]4COP(=O)(S)O[C@@H]2[C@@H]3F)c(=O)[nH]1` (single isomer, unassigned) [Example 33]: the “% Effect at 30 μM relative to 2′3′-cGAMP” value in assay [2] stood at 83%. In assay [1], this compound showed an EC50 of 90 nM.

As for `O=c1ccn([C@@H]2O[C@@H]3COP(=O)(S)O[C@@H]4[C@H](O)[C@@H](COP(=O)(S)O[C@H]3[C@H]2O)O[C@H]4n2ccc(=O)n3ccnc23)c2nccn12` (stereo partly drawn) [Example 30, 8,8′-[(5R,7R,8R,12aR,14R,15R,15aS,16R)-15,16-dihydroxy-2,10-dioxido-2,10-disulfanyloctahydro-12H-5,8-methanofuro[3,2-l][1,3,6,9,11,2,10]pentaoxadiphosphacyclo-tetradecine-7,14-diyl]bisimidazo[1,2-a]pyrimidin-5(8H)-one], in assay [2] (THP-1), the activation at 30 µM was determined as 127%. Besides, in assay [1], the EC50 came out at 37 nM.

For the compound `Nc1nc2c(ncn2[C@@H]2O[C@@H]3COP(=O)(S)O[C@H]4[C@@H](O)[C@H](n5cnc6c(=O)[nH]c7nccn7c65)O[C@@H]4COP(=O)(S)O[C@@H]2[C@@H]3F)c(=O)[nH]1` (single isomer, unassigned) [Example 32], the “% Effect at 30 μM relative to 2′3′-cGAMP” value in assay [2] was 141%. For the same compound, the 50% effective concentration (EC50) in assay [1] stood at 14 nM.

On to `Nc1nc2c(ncn2[C@@H]2O[C@@H]3COP(=O)(S)O[C@H]4[C@H](F)[C@H](n5ccc6c(=O)[nH]cnc65)O[C@@H]4COP(=O)(S)O[C@@H]2[C@@H]3F)c(=O)[nH]1` (single isomer, unassigned) [Example 39], for which the activation at 30 µM in assay [2] (THP-1, 5 h) turned out to be 166%. The compound also gave an EC50 in assay [1] of 1 nM.

Take `Nc1ncnc2c1ncn2[C@@H]1O[C@@H]2COP(=O)(S)O[C@H]3[C@H](F)[C@H](n4ccc5c(=O)[nH]cnc54)O[C@@H]3COP(=O)(S)O[C@@H]1C2` (single isomer, unassigned) [Example 47]: in assay [2], the “% Effect at 30 μM relative to 2′3′-cGAMP” value was found to be 13%. This compound also gave an EC50 in assay [1] of 460 nM.

On to `Nc1ncnc2c1ncn2[C@@H]1O[C@@]23CO[C@@H]1[C@@H]2OP(=O)(S)OC[C@H]1O[C@@H](n2cnc4c(=O)n5cc[nH]c5nc42)[C@H](OP(=O)(S)OC3)[C@@H]1F` (single isomer, unassigned) [Example 25], for which the “% Effect at 30 μM relative to 2′3′-cGAMP” value in assay [2] worked out at 131%. The same compound had a 50% effective concentration (EC50) in assay [1] of 1 nM.

On to `Nc1cc2c(ncn2[C@@H]2O[C@@H]3COP(=O)(S)O[C@H]4[C@H](F)[C@H](n5ccc6c(=O)[nH]cnc65)O[C@@H]4COP(=O)(S)O[C@@H]2[C@@H]3F)c(=O)[nH]1` (stereo partly drawn) [Example 51, 6-amino-1-[(5R,7R,8S,12aR,14R,15S,15aR,16R)-15,16-difluoro-2,10-dioxido-14-(4-oxo-3,4-dihydro-7H-pyrrolo[2,3-d]pyrimidin-7-yl)-2,10-disulfanyl-octahydro-12H-5,8-methanofuro[3,2-l] [1,3,6,9,11,2,10]pentaoxadiphosphacyclotetradecin-7-yl]-1,5-dihydro-4H-imidazo[4,5-c]pyridin-4-one], for which, in assay [2] (THP-1, 5 h), the activation at 30 µM stood at 113%. For the same compound, the EC50 in assay [1] amounted to 13 nM.

For `Nc1ncnc2c1nnn2[C@@H]1O[C@@H]2COP(=O)(S)O[C@@H]3[C@H](F)[C@@H](COP(=O)(S)O[C@H]2[C@@H]1F)O[C@H]3n1cnc2c(=O)n3cc[nH]c3nc21` (single isomer, unassigned) [Example 24], in assay [1], the EC50 worked out at 411 nM.

As for `Nc1ncnc2c1ncn2[C@@H]1O[C@@H]2COP(=O)(S)O[C@@H]3[C@@H](F)[C@@H](COP(=O)(S)O[C@H]2[C@@H]1F)O[C@H]3n1cnc2c(=O)[nH]ccc21` (stereo partly drawn) [Example 21, 1-[(5R,7R,8S,12aR,14R,15S,15aR,16S)-14-(6-amino-9H-purin-9-yl)-15,16-difluoro-2,10-dioxido-2,10-disulfanyloctahydro-12H-5,8-methanofuro[3,2-1][1,3,6,9,11,2,10]pentaoxadiphosphacyclotetradecin-7-yl]-1,5-dihydro-4H-imidazo[4,5-c]pyridin-4-one], in assay [2] (THP-1), the activation at 30 µM is 143%.

Source of the values: patent US11685761B2, “Cyclic di-nucleotide compounds as sting agonists” (Merck Sharp & Dohme Corp., priority 2017, dated 2023).
